Reference: patent US11510931B2, “Compositions and methods for treating ophthalmic conditions” (MEDICON PHARMACEUTICALS, INC., priority 2016, dated 2022)

Tested on: cornea of New Zealand white rabbits
Test: Corneal touch threshold (CTT), Cochet-Bonnet aesthesiometer
Format: in vivo, rabbit
Experimental: The analgesic effect of PS was determined by measuring the corneal touch threshold (CTT) using the Luneau Cochet-Bonnet Aeshesiometer (Western Ophthalmics, Lynwood, Wash.), an adjustable nylon monofilament with a defined diameter, which is applied in different lengths to the center of the cornea. This device is generally described in Lima L, Lange R R, Turner-Giannico A, Montiani-Ferreira F. Evaluation of standardized endodontic paper point tear test in New Zealand white rabbits and comparison between corneal sensitivity followed tear tests. Vet Ophthalmol. 2015; 18 Suppl 1:119-24.
A stimulus produced by the filament that reaches the CTT induces a corneal reflex, consisting of prompt eyelid closure. The CTT is quantified as centimeter length of the filament necessary to cause the blink reflex.
The CTT is determined before (baseline) and at various time points after the application of the test compound (PS). PS was formulated either in β-cyclodextrin (42 or 8 mg/ml) or in a nanocarrier (19 mg/ml). The test drug was formulated in a nanocarrier by the emulsion and evaporation method (Vauthier C, Bouchemal K. Methods for the Preparation and Manufacture of Polymeric Nanoparticles. Pharmaceutical Research; 2009; 26:1025-1058). The formulated stable drug suspension consisted of polylactic acid and polyethylene glycol (PLLA(10k)-PEG(2k)); sodium cholate; and PS. The vehicle control was either β-cyclodextrin or the nanocarrier without PS. Commercially available lidocaine 1% was used as a positive control.
To each eye of adult New Zealand white rabbits was applied […] drops of PS or vehicle or lidocaine, with 5 minutes between each drop. The time of the last drop was taken as the 0 time.
The analgesic effect of PS was further examined on the surface of the eye by determining the corneal touch threshold (CTT) using the Luneau Cochet-Bonnet Aesthesiometer (Western Ophthalmics, Lynwood, Wash.) an adjustable nylon monofilament with a defined diameter, which is applied in different lengths to the center of the cornea.

CCOP(=O)(OCC)OCCCCOC(=O)CC1=C(C)/C(=C/c2ccc([S+](C)[O-])cc2)c2ccc(F)cc21 (stereo not shown) [PS, phosphosulindac]
Corneal touch threshold (CTT) (PS 8 mg/ml in β-cyclodextrin, 1 min): 5.3 ± 0.7 centimeter | Corneal touch threshold (CTT) (PS 8 mg/ml in β-cyclodextrin, 5 min): 5.4 ± 0.8 centimeter | Corneal touch threshold (CTT) (PS 8 mg/ml in β-cyclodextrin, 10 min): 5.6 ± 0.5 centimeter | Corneal touch threshold (CTT) (PS 8 mg/ml in β-cyclodextrin, 20 min): 5.6 ± 0.5 centimeter | Corneal touch threshold (CTT) (PS 8 mg/ml in β-cyclodextrin, 30 min): 5.9 ± 0.3 centimeter | Corneal touch threshold (CTT) (PS 8 mg/ml in β-cyclodextrin, 45 min): 5.9 ± 0.3 centimeter | Corneal touch threshold (CTT) (PS 8 mg/ml in β-cyclodextrin, 60 min): 5.9 ± 0.3 centimeter | Corneal touch threshold (CTT) (PS 8 mg/ml in β-cyclodextrin, baseline): 5.9 ± 0.3 centimeter | Corneal touch threshold (CTT) (PS 19 mg/ml in nanocarrier, 1 min): 5.4 ± 0.6 centimeter | Corneal touch threshold (CTT) (PS 19 mg/ml in nanocarrier, 5 min): 5.1 ± 0.8 centimeter | Corneal touch threshold (CTT) (PS 19 mg/ml in nanocarrier, 10 min): 5.3 ± 0.8 centimeter | Corneal touch threshold (CTT) (PS 19 mg/ml in nanocarrier, 20 min): 5.5 ± 0.7 centimeter | Corneal touch threshold (CTT) (PS 19 mg/ml in nanocarrier, 30 min): 5.9 ± 0.2 centimeter | Corneal touch threshold (CTT) (PS 19 mg/ml in nanocarrier, 45 min): 5.9 ± 0.4 centimeter | Corneal touch threshold (CTT) (PS 19 mg/ml in nanocarrier, 60 min): 5.9 ± 0.2 centimeter | Corneal touch threshold (CTT) (PS 19 mg/ml in nanocarrier, baseline): 5.9 ± 0.3 centimeter | Corneal touch threshold (CTT) (PS 42 mg/ml in β-cyclodextrin, 1 min): 2.7 ± 1.0 centimeter | Corneal touch threshold (CTT) (PS 42 mg/ml in β-cyclodextrin, 5 min): 3.1 ± 1.2 centimeter | Corneal touch threshold (CTT) (PS 42 mg/ml in β-cyclodextrin, 10 min): 3.7 ± 1.3 centimeter | Corneal touch threshold (CTT) (PS 42 mg/ml in β-cyclodextrin, 20 min): 4.1 ± 1.4 centimeter | Corneal touch threshold (CTT) (PS 42 mg/ml in β-cyclodextrin, 30 min): 5.1 ± 1.0 centimeter | Corneal touch threshold (CTT) (PS 42 mg/ml in β-cyclodextrin, 45 min): 5.6 ± 0.7 centimeter | Corneal touch threshold (CTT) (PS 42 mg/ml in β-cyclodextrin, 60 min): 5.9 ± 0.2 centimeter | Corneal touch threshold (CTT) (PS 42 mg/ml in β-cyclodextrin, baseline): 5.9 ± 0.2 centimeter | analgesia (CTT) (single eye drop, naïve rabbits, FIG. 10): essentially instantaneous and significant analgesia
